According to patent publication US11254686B1 (Corvus Pharmaceuticals, Inc., priority 2017, dated 2022):

Tests used:
adenosine A2A receptor = adenosine A2A receptor (Homo sapiens (Human), UniProt P29274); test: Adenosine receptor activity assay (Table 1), A2A activity; format: biochemical; settings: read-out: Ave A2A cAMP IC50
adenosine A2B receptor = adenosine A2B receptor (Homo sapiens (Human), UniProt P29275); test: Adenosine receptor activity assay (Table 1), A2B activity; format: biochemical; settings: for Ratio: A2A activity to A2B activity (A2A/A2B); for IC50: read-out: Ave A2B cAMP IC50
Sequence of adenosine A2B receptor (P29275 whole entry): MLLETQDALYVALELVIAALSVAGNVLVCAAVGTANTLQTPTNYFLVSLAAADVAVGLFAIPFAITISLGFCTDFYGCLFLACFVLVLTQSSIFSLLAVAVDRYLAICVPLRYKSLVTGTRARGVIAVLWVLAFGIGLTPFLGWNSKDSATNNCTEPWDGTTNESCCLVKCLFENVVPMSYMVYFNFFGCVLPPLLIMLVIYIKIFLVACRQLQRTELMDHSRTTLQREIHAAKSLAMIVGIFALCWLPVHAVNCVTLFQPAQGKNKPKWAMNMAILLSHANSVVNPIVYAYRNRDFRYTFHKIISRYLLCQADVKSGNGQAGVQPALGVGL

Sequence of adenosine A2A receptor (P29274 whole entry): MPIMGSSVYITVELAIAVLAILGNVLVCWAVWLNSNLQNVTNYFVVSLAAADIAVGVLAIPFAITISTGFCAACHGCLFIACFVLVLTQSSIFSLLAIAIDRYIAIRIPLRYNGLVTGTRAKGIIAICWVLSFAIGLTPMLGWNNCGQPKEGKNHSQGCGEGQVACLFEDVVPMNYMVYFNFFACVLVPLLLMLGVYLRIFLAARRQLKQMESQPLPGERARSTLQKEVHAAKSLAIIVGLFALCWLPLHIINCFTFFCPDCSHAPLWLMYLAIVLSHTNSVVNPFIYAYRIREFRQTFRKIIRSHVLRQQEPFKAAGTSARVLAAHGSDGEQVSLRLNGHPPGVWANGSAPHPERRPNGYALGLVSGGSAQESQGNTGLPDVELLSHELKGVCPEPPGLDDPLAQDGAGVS

SMILES | IC50 (adenosine A2A receptor) [nM] | Ratio (adenosine A2B receptor) | IC50 (adenosine A2B receptor) [nM]
CCC(Nc1nc(C(=O)N2CC[C@@H](OC)C2)c2sccc2n1)c1cccnc1 (stereo partly drawn) [Example Z26, ((R)-3-Methoxypyrrolidin-1-yl)(2-((1-(pyridin-3-yl)propyl)amino)thieno[3,2-d]pyrimidin-4-yl)methanone] | 50 to 100 | 2.58 | 10 to 50
C[C@H](Nc1nc(C(=O)NCC2CCN(Cc3ccccc3)CC2)c2sccc2n1)c1cccnc1 [Example Z27, (S)—N-((1-benzylpiperidin-4-yl)methyl)-2-((1-(pyridin-3-yl)ethyl)amino)thieno[3,2-d]pyrimidine-4-carboxamide] | 100 to 500 | 1.97 | 50 to 100
C[C@H](Nc1nc(C(=O)N[C@H](C)c2cccnc2)c2sccc2n1)c1cccnc1 [Example Z30, N—((R)-1-(Pyridin-3-yl)ethyl)-2-(((S)-1-(pyridin-3-yl)ethyl)amino)thieno[3,2-d]pyrimidine-4-carboxamide] | > 500 | 8.34 | 100 to 500
C[C@H](Nc1nc(C(=O)N2CCCCC2)c2sccc2n1)c1cccnc1 [Example Z31, (S)-Piperidin-1-yl(2-((1-(pyridin-3-yl)ethyl)amino)thieno[3,2-d]pyrimidin-4-yl)methanone] | > 500 | 40.00 | 100 to 500
COc1ccc(CNC(=O)c2nc(N[C@@H](C)c3cccnc3)nc3ccsc23)cc1OC [Example Z33, (S)—N-(3,4-Dimethoxybenzyl)-2-((1-(pyridin-3-yl)ethyl)amino)thieno[3,2-d]pyrimidine-4-carboxamide] | > 500 | 4.57 | > 500
O=C(NCc1cccnn1)c1nc(NCc2cccnn2)nc2ccsc12 [Example Z35, N-(Pyridazin-3-ylmethyl)-2-((pyridazin-3-ylmethyl)amino)thieno[3,2-d]pyrimidine-4-carboxamide] | > 500 | 1.00 | > 500
C[C@H](Nc1nc(C(=O)N2CCC[C@@H]2C)c2sccc2n1)c1cccnc1 [Example Z36, ((S)-2-Methylpyrrolidin-1-yl)(2-(((S)-1-(pyridin-3-yl)ethyl)amino)thieno[3,2-d]pyrimidin-4-yl)methanone] | 100 to 500 | 1.55 | 100 to 500
C[C@H](Nc1nc(C(=O)N2CCC[C@H]2C)c2sccc2n1)c1cccnc1 [Example Z37, ((R)-2-Methylpyrrolidin-1-yl)(2-(((S)-1-(pyridin-3-yl)ethyl)amino)thieno[3,2-d]pyrimidin-4-yl)methanone] | > 500 | 64.10 | 100 to 500
COc1ccc(CNc2nc(C(=O)N3CCCC3)c3sccc3n2)cc1OC [Example Z38, (2-((3,4-Dimethoxybenzyl)amino)thieno[3,2-d]pyrimidin-4-yl)(pyrrolidin-1-yl)methanone] | > 500 | 1.00 | > 500
O=C(c1nc(NCc2ccccc2)nc2ccsc12)N1CCCC1 [Example Z39, (2-(Benzylamino)thieno[3,2-d]pyrimidin-4-yl)(pyrrolidin-1-yl)methanone] | 100 to 500 | 1.22 | 100 to 500
O=C(c1nc(NCc2ccccc2)nc2ccsc12)N1CC[C@H](O)C1 [Example Z40, (S)-(2-(Benzylamino)thieno[3,2-d]pyrimidin-4-yl)(3-hydroxypyrrolidin-1-yl)methanone] | > 500 | 21.05 | 100 to 500
CCN(CC)C(=O)c1nc(N[C@@H](C)c2cccnc2)nc2ccsc12 [Example Z41, (S)—N,N-Diethyl-2-((1-(pyridin-3-yl)ethyl)amino)thieno[3,2-d]pyrimidine-4-carboxamide] | > 500 | 1.00 | > 500
O=C(c1nc(NCc2cccnn2)nc2ccsc12)N1CCCC1 [Example Z43, (2-((Pyridazin-3-ylmethyl)amino)thieno[3,2-d]pyrimidin-4-yl)(pyrrolidin-1-yl)methanone] | > 500 | 33.44 | 100 to 500
CC(NC(=O)c1nc(NC(C)c2cccnc2)nc2ccsc12)c1cccnc1 (stereo not drawn) [Example Z44, N-(1-(Pyridin-3-yl)ethyl)-2-((1-(pyridin-3-yl)ethyl)amino)thieno[3,2-d]pyrimidine-4-carboxamide] | > 500 | 44.44 | 100 to 500
Cc1cncc(CNC(=O)c2nc(NCc3cncc(C)c3)nc3ccsc23)c1 [Example Z45, N-((5-Methylpyridin-3-yl)methyl)-2-(((5-methylpyridin-3-yl)methyl)amino)thieno[3,2-d]pyrimidine-4-carboxamide] | > 500 | 1.00 | > 500
C[C@H](Nc1nc(C(=O)N2CCC[C@@H]2CO)c2sccc2n1)c1cccnc1 [Example Z46, ((R)-2-(Hydroxymethyl)pyrrolidin-1-yl)(2-(((S)-1-(pyridin-3-yl)ethyl)amino)thieno[3,2-d]pyrimidin-4-yl)methanone] | > 500 | 30.80 | 100 to 500
C[C@H](Nc1nc(C(=O)N2CCC[C@H]2CO)c2sccc2n1)c1cccnc1 [Example Z47, ((S)-2-(Hydroxymethyl)pyrrolidin-1-yl)(2-(((S)-1-(pyridin-3-yl)ethyl)amino)thieno[3,2-d]pyrimidin-4-yl)methanone] | > 500 | 1.00 | > 500
CC(Nc1nc(C(=O)N2CC[C@@H](F)C2)c2sccc2n1)c1cccnc1 (stereo partly drawn) [Example Z48, ((R)-3-Fluoropyrrolidin-1-yl)(2-((1-(pyridin-3-yl)ethyl)amino)thieno[3,2-d]pyrimidin-4-yl)methanone] | 100 to 500 | 9.26 | 10 to 50
COc1ccc(CNC(=O)c2nc(NC(C)c3ccccn3)nc3ccsc23)cn1 (stereo not drawn) [Example Z49, N-((6-Methoxypyridin-3-yl)methyl)-2-((1-(pyridin-2-yl)ethyl)amino)thieno[3,2-d]pyrimidine-4-carboxamide] | 100 to 500 | 0.62 | 100 to 500
O=C(NCc1ccccc1)c1nc(NCc2ccccc2)nc2ccsc12 [Example Z51, N-Benzyl-2-(benzylamino)thieno[3,2-d]pyrimidine-4-carboxamide] | 100 to 500 | 0.40 | 100 to 500
Cc1cncc(CNc2nc(C(=O)N3CC[C@H](O)C3)c3sccc3n2)c1 [Example Z56, (S)-(3-Hydroxypyrrolidin-1-yl)(2-(((5-methylpyridin-3-yl)methyl)amino)thieno[3,2-d]pyrimidin-4-yl)methanone] | > 500 | 50.76 | 100 to 500
COc1ccc(CNC(=O)c2nc(NCc3cncc(C)c3)nc3ccsc23)cn1 [Example Z57, N-((6-Methoxypyridin-3-yl)methyl)-2-(((5-methylpyridin-3-yl)methyl)amino)thieno[3,2-d]pyrimidine-4-carboxamide] | 100 to 500 | 1.41 | 100 to 500
C[C@H](Nc1nc(C(=O)NCc2ccc(C#N)nc2)c2sccc2n1)c1ccccn1 [Example Z64, (S)—N-((6-Cyanopyridin-3-yl)methyl)-2-((1-(pyridin-2-yl)ethyl)amino)thieno[3,2-d]pyrimidine-4-carboxamide] | 100 to 500 | 1.94 | 100 to 500
